Converted amounts (≈) assume the structure as drawn.
Experiments:
in vitro [1] = conditions: human
physchem [2] = assay: physchem
in vitro [3] = conditions: hepatocytes
in vitro [4] = conditions: SD, HW or BN, rat, plasma
physchem [5] = assay: physchem; remark: listed apart in the source
physchem [6] = conditions: octan-1-ol/water
in vitro [7] = conditions: human, plasma
physchem [8] = conditions: pH 7.4 buffer
in vitro [9] = conditions: human, hepatocytes

Structure (SMILES)	pKa (physchem [2])	logD (physchem [6]; pH 7.4, LogD7.4)	also measured
Cc1nn(-c2ccccc2)c(NC(=O)NS(=O)(=O)c2ccc(Cl)cc2)c1C#N	2.3		microsomal CLint (in vitro [1]; microsomes): < 3 µL/min/mg; hepatocyte CLint (in vitro [3]): 21.5 µL/min/1e6 cells; fraction unbound at 5 h (in vitro [4]): 0.0175
OCc1ccnc2c(O)cccc12	9.45		pKa (physchem [5]): 4.64
CN(C)C1CCc2c(ccc(O)c2O)C1 (stereo not drawn)	8.85		pKa (physchem [5]): 10.5
CC1=C(CC(=O)O)c2cc(F)ccc2/C1=C\c1ccc([S+](C)[O-])cc1 (stereo not drawn)	3.9	-0.01	microsomal CLint (in vitro [1]; liver microsomes): < 3 µL/min/mg
NC1CCc2c(ccc(O)c2O)C1 (stereo not drawn)	8.9		pKa (physchem [5]): 10.5
O=C(O)COc1ccc([N+](=O)[O-])cc1-c1ccccc1	2.7	-0.69	fraction unbound at 5 h (in vitro [7]; PPB): 0.0041
CCS(=O)(=O)c1ccc(-c2cc(C(F)(F)F)ccc2OCC(=O)O)c(Cl)c1	3.3		microsomal CLint (in vitro [1]; liver microsomes): < 3 µL/min/mg; fraction unbound at 5 h (in vitro [4]): 0.0313
CCC(Oc1ccc(C(F)(F)F)cc1-c1ccc(S(=O)(=O)CC)cc1C)C(=O)O (stereo not drawn)	3.4	0.31	
CCS(=O)(=O)c1ccc(-c2cc(C(F)(F)F)ccc2CCC(=O)O)c(C)c1	4.2		microsomal CLint (in vitro [1]; liver microsomes): < 3 µL/min/mg; fraction unbound at 5 h (in vitro [7]; PPB): 0.0256
N#Cc1cn(Cc2ccco2)c(=O)[nH]c1=O	6.1		microsomal CLint (in vitro [1]; liver microsomes): < 3 µL/min/mg
CCC(CC)NC(=O)c1nnn(-c2ccccc2)c1NS(=O)(=O)c1ccc(C)cc1	3.3	0.46	microsomal CLint (in vitro [1]; liver microsomes): 35 µL/min/mg; fraction unbound at 5 h (in vitro [7]; PPB): 0.0072; hepatocyte CLint (in vitro [3]): 56 µL/min/1e6 cells
CCC(CC)NC(=O)c1cn(-c2ccccc2)nc1NS(=O)(=O)c1ccc(C)cc1	5.3	2.51	microsomal CLint (in vitro [1]; liver microsomes): 9 µL/min/mg; solubility thermodynamic (physchem [8]): 174 µM (≈ 74.1 µg/mL); fraction unbound at 5 h (in vitro [7]; PPB): 0.0013; hepatocyte CLint (in vitro [3]): 7 µL/min/1e6 cells; fraction unbound at 5 h (in vitro [4]): 0.0033
Cc1ccc(S(=O)(=O)Nc2c(C(=O)N[C@@H](C)C(C)(C)C)c(C(F)(F)F)nn2-c2ccccc2)cc1	3.8		microsomal CLint (in vitro [1]; liver microsomes): 120 µL/min/mg; fraction unbound at 5 h (in vitro [7]; PPB): 0.0043; hepatocyte CLint (in vitro [3]): 18.8 µL/min/1e6 cells; fraction unbound at 5 h (in vitro [4]): 0.0097
Cc1ccc2c(c1)c(Sc1ccc(Cl)cc1)c(C)n2CC(=O)O	4.1	2.18	microsomal CLint (in vitro [1]; liver microsomes): 7 µL/min/mg
CCC(CC)NC(=O)c1c(C)nn(C(C)C)c1NS(=O)(=O)c1ccc(C)cc1	4.7	0.92	fraction unbound at 5 h (in vitro [7]; PPB): 0.035; fraction unbound at 5 h (in vitro [4]): 0.089
Cc1ccc(S(=O)(=O)Nc2c(C(=O)N[C@@H](C)C(C)(C)C)c(C)nn2C(C)(C)C)cc1	5.5	1.84	microsomal CLint (in vitro [1]; microsomes): 37 µL/min/mg; solubility thermodynamic (physchem [8]): 513 µM (≈ 223 µg/mL)
CCC(CC)n1nc(C)c(C(=O)N[C@@H](C)C(C)(C)C)c1NS(=O)(=O)c1ccc(C)cc1	4.6	1.88	fraction unbound at 5 h (in vitro [7]; PPB): 0.02; fraction unbound at 5 h (in vitro [4]): 0.0818
COc1nc(Cl)c(Cl)nc1NS(=O)(=O)c1ccc(Cl)s1	3.6		microsomal CLint (in vitro [1]; liver microsomes): 10 µL/min/mg; fraction unbound at 5 h (in vitro [7]; PPB): 0.0008
COCCNc1nc(N)c2nc(O)n(Cc3ccccc3)c2n1	10	2.18	microsomal CLint (in vitro [1]; liver microsomes): 5.5 µL/min/mg; fraction unbound at 5 h (in vitro [7]; PPB): 0.208
O=C(O)c1ccc(N2CCC(CN3CCC(Oc4ccc(Cl)c(Cl)c4)CC3)CC2)cc1	4.55		pKa (physchem [5]): 8.85
O=C(O)Cc1cccc(N2CCC(CN3CCC(Oc4ccc(Cl)c(Cl)c4)CC3)CC2)c1	4.4		pKa (physchem [5]): 8.9
O=C(O)c1ccc(CN2CCC(CN3CCC(Oc4ccc(Cl)c(Cl)c4)CC3)CC2)cc1	3.5		microsomal CLint (in vitro [1]; liver microsomes): < 3 µL/min/mg
CN(C)c1ccc(S(=O)(=O)NC(=O)N2CCC(N3CCC(Oc4ccc(Cl)c(Cl)c4)CC3)CC2)cc1	6.1	1.7	microsomal CLint (in vitro [1]; liver microsomes): 10.5 µL/min/mg; fraction unbound at 5 h (in vitro [7]; PPB): 0.0017

Structure (SMILES)	pKa (physchem [2])	logD (physchem [6]; pH 7.4, LogD7.4)	also measured
Cc1ccccc1S(=O)(=O)NC(=O)N1CCC(N2CCC(Oc3ccc(Cl)c(Cl)c3)CC2)CC1	3.4	1.71	fraction unbound at 5 h (in vitro [7]; PPB): 0.105
Cn1c(C(=O)O)c(CCCOc2cccc3ccccc23)c2ccccc21	4.01	2.99	
O=C(Nc1ccc([N+](=O)[O-])cc1O)Nc1ccccc1Br	7.7	3.9	fraction unbound at 5 h (in vitro [7]; PPB): 0.0027
N#Cc1ccc2[nH]c(-c3ccc(F)cc3)c(CCCC(=O)NS(N)(=O)=O)c2c1	5.9	1.95	microsomal CLint (in vitro [1]; liver microsomes): < 3 µL/min/mg; solubility thermodynamic (physchem [8]): 26.9 µM (≈ 10.8 µg/mL); fraction unbound at 5 h (in vitro [7]; PPB): 0.0146; hepatocyte CLint (in vitro [3]): 19.6 µL/min/1e6 cells
NC1CCc2cc(O)c(O)cc2C1 (stereo not drawn)	9.1		pKa (physchem [5]): 10.5
Nc1nc(-c2ccccc2)cc(=O)[nH]1	9.05		pKa (physchem [5]): 3.45
NCC1CCC(C(=O)O)CC1 (stereo not drawn)	4.9		pKa (physchem [5]): 10
NCC1Cc2c1ccc(O)c2O (stereo not drawn)	10.4		pKa (physchem [5]): 8.5
Cc1cn(Cc2ccccc2)c(=O)[nH]c1=O	9.4		logD (physchem [6]; pH 7.4): 1.19
Nc1nc2nc(SCc3ccccc3)[nH]c(=O)c2s1	7.1		microsomal CLint (in vitro [1]; liver microsomes): < 3 µL/min/mg
C(=C\c1nn[nH]n1)/c1ccccc1	4.5	-0.4	
Cc1c(O)nc(N)nc1-c1ccccc1	9.61		pKa (physchem [5]): 4.37
CS(=O)(=O)NC(=O)CCCc1c(-c2ccc(F)cc2)[nH]c2ccc(C#N)cc12	5.2	1.5	microsomal CLint (in vitro [1]; microsomes): < 3 µL/min/mg; fraction unbound at 5 h (in vitro [7]; PPB): 0.013; hepatocyte CLint (in vitro [3]): 14.3 µL/min/1e6 cells
O=C(NCC12CC3CC(CC(C3)C1)C2)c1cc(-n2ncc(=O)[nH]c2=O)ccc1Cl	6.2	2.1	microsomal CLint (in vitro [1]; liver microsomes): 83.8 µL/min/mg; hepatocyte CLint (in vitro [9]): 37 µL/min/1e6 cells; hepatocyte CLint (in vitro [3]): 15.3 µL/min/1e6 cells; fraction unbound at 5 h (in vitro [4]): 0.0171
N#Cc1c(O)nc(N)nc1-c1ccccc1	6.52		fraction unbound at 5 h (in vitro [7]; PPB): 0.0366; fraction unbound at 5 h (in vitro [4]): 0.0366
O=C(O)c1ccc(-c2ccc(Cl)c(C(=O)NCC34CC5CC(CC(C5)C3)C4)c2)cc1	4.1	2.48	fraction unbound at 5 h (in vitro [7]; PPB): 0.0077; fraction unbound at 5 h (in vitro [4]): 0.0074
CCOC(=O)[C@H](CCc1ccccc1)N[C@@H](C)C(=O)N1CCC[C@H]1C(=O)O	3.1		pKa (physchem [5]): 6.4
CCCN(CCC)C1CCc2c(O)cccc2C1 (stereo not drawn) [5-OH-DPAT]	9.25		pKa (physchem [5]): 10.8
CC(=O)Nc1ccc(O)cc1 [ACETAMINOPHEN]	9.48	0.25	fraction unbound at 5 h (in vitro [7]): 0.734
Nc1ncnc2c1ncn2CCOCP(=O)(O)O [ADEFOVIR]	7.66		pKa (physchem [5]): 4.34
NS(=O)(=O)c1cc(C2(O)NC(=O)c3ccccc32)ccc1Cl (stereo not drawn) [CHLORTHALIDONE]	9.11		logD (physchem [6]; pH 7.4): 0.97; solubility thermodynamic (physchem [8]): 501 µM (≈ 170 µg/mL)
O=C(O)c1cc(=O)c2ccccc2o1 [CHROMOCARB]	< 2		
CCn1nc(C(=O)O)c(=O)c2cc3c(cc21)OCO3 [CINOXACIN]	4.36		

Structure (SMILES)	pKa (physchem [2])	logD (physchem [6]; pH 7.4, LogD7.4)	also measured
NC1CCN(c2c(F)cc3c(=O)c(C(=O)O)cn(C4CC4)c3c2Cl)C1 (stereo not drawn) [CLINAFLOXACIN]	5.77		pKa (physchem [5]): 9.1
CNCCc1ccc(O)c(O)c1 [DEOXIEPINEPHRINE]	8.97		pKa (physchem [5]): 10.9
CC1=NS(=O)(=O)c2cc(Cl)ccc2N1 [DIAZOXIDE]	8.42	1.05	
CCCCc1oc2ccc(NS(C)(=O)=O)cc2c1C(=O)c1ccc(OCCCN(CCCC)CCCC)cc1 [DRONEDARONE]	7.69		fraction unbound at 5 h (in vitro [7]; PPB): 0.0009
CCc1cccc2c3c([nH]c12)C(CC)(CC(=O)O)OCC3 (stereo not drawn) [ETODOLAC]	4.15		hepatocyte CLint (in vitro [9]): 12.9 µL/min/1e6 cells
CN1CCN(c2c(F)cc3c(=O)c(C(=O)O)cn(CCF)c3c2F)CC1 [FLEROXACIN]	5.6		pKa (physchem [5]): 7.91
Cc1onc(-c2c(F)cccc2Cl)c1C(=O)N[C@@H]1C(=O)N2[C@@H]1SC(C)(C)[C@@H]2C(=O)O [FLOXACILLIN]	2.46		
O=C(O)c1ccccc1Nc1cccc(C(F)(F)F)c1 [FLUFENAMIC ACID]	3.56		logD (physchem [6]; pH 7.4): 2.01
CO/N=C1\CN(c2nc3c(cc2F)c(=O)c(C(=O)O)cn3C2CC2)CC1CN (stereo not drawn) [GEMIFLOXACIN]	6.36		pKa (physchem [5]): 8.6
C[C@@H](C(=O)NS(C)(=O)=O)c1ccc(OS(=O)(=O)C(F)(F)F)cc1 [LADARIXIN]	3.1		microsomal CLint (in vitro [1]; liver microsomes): < 3 µL/min/mg; hepatocyte CLint (in vitro [3]): < 3 µL/min/1e6 cells
CCCc1nc(C(C)(C)O)c(C(=O)OCc2oc(=O)oc2C)n1Cc1ccc(-c2ccccc2-c2nnn[nH]2)cc1 [OLMESARTAN MEDOXOMIL]	4.29		pKa (physchem [5]): 6.05
O=C(O)CCc1nc(-c2ccccc2)c(-c2ccccc2)o1 [OXAPROZIN]	3.87		fraction unbound at 5 h (in vitro [7]; PPB): 0.0005; fraction unbound at 5 h (in vitro [4]): 0.0024
Nc1nc2c(ncn2CCC(CO)CO)c(=O)[nH]1 [PENCICLOVIR]	9.48		pKa (physchem [5]): 2.97
CC1(C)S[C@@H]2[C@H](NC(=O)Cc3ccccc3)C(=O)N2[C@H]1C(=O)O [PENICILLIN G]	3.32		
CC(C)(C)c1cc(NC(=O)NCc2ccccc2Sc2ccc3nnc(-c4ccccc4SCCO)n3c2)n(-c2ccc(O)c(Cl)c2)n1 [PF-03715455]	7.17		microsomal CLint (in vitro [1]; liver microsomes): > 150 µL/min/mg; hepatocyte CLint (in vitro [9]): 25.1 µL/min/1e6 cells; hepatocyte CLint (in vitro [3]): 70.8 µL/min/1e6 cells; fraction unbound at 5 h (in vitro [4]): 0.0013
COC(=O)c1cc2nc([S+]([O-])Cc3ncccc3C)[nH]c2cc1C (stereo not drawn) [PICOPRAZOLE]	8.1		pKa (physchem [5]): 3.5
CCCc1c2c(cc3c(=O)cc(C(=O)O)oc13)CCCC2 [PROCROMIL]	< 2		
CN(C(=O)c1c(O)c2ccccc2n(C)c1=O)c1ccccc1 [ROQUINIMEX]	4.2		
Nc1ccc(S(=O)(=O)Nc2ncccn2)cc1 [SULFADIAZINE]	6.29		
Cc1nnc(NS(=O)(=O)c2ccc(N)cc2)s1 [SULFAMETHIZOLE]	5.4	-1.33	fraction unbound at 5 h (in vitro [7]; PPB): 0.0647
Nc1ccc(S(=O)(=O)Nc2nccs2)cc1 [SULFATHIAZOLE]	7.01	-0.37	
Cc1ccc(S(=O)(=O)NC(=O)NN2CCCCCC2)cc1 [TOLAZAMIDE]	5.8	0.01	
O=C(O)c1cc(=O)c2ccccc2[nH]1 [TRANSTORINE]	2.5		
